Values quoted from earlier work as cited in US20070026077A1 (priority 2003, published 2007).

What was measured:
[1] = white crystalline light powder
[2] = test system: small-cell lung carcinoma; conditions: patients with small-cell lung carcinoma

Row | Structure (SMILES) | hygroscopicity [1] | survival time [2] | tumor disease progression [2] | bound to plasmatic proteins (plasmatic proteins)
1 | CC(=O)CC(c1ccccc1)c1c([O-])c2ccccc2oc1=O.[Na+] (stereo not drawn) [warfarin sodium salt, sodium salt of 3-(α-acetonylbenzyl)-4-hydroxy-coumarin] | hygroscopic | – | – | –
2 | CC(=O)CC(c1ccccc1)c1c(O)c2ccccc2oc1=O (stereo not shown) [warfarin] | – | prolongation of survival time | statistically significant retardation of tumor disease progression | About 97%
